Patent publication US10723692B2, “Lipids and lipid nanoparticle formulations for delivery of nucleic acids” (Acuitas Therapeutics, Inc., priority 2014, dated 2020)
Like-named read-outs stand apart in the source and are kept apart here.

Columns and labels:
[1] = system: hFIX protein in mouse plasma; experiment: LNP delivery of human FIX mRNA, hFIX protein in mouse plasma by ELISA; type: in vivo; conditions: for Human Factor IX @ 0.3 mg/kg (ng mL in plasma): 0.3 mg/kg hFIX mRNA LNP; for Human Factor IX @ 0.3 mg/kg (ng mL in plasma) / Human Factor IX @ 1.0 mg/kg (ng mL in plasma): ELISA; for Human Factor IX @ 1.0 mg/kg (ng mL in plasma): 1.0 mg/kg hFIX mRNA LNP; for measured levels of hFIX expression (assessment): hFIX mRNA LNPs
Description: The LNPs with cationic lipids shown in Table 7 are formulated with mRNA coding for human FIX (e.g. TriLink Biotechnologies product L-6110) using the following molar ratio of lipids: 50% lipid/10% distearoylphosphatidylcholine (DSPC)/38.5% Cholesterol/1.5% PEG-lipid as described in EXAMPLE 47. Plasma protein is analyzed by ELISA using a commercially available kit (e.g. Abcam ab108831) as per the suppliers instructions. […] The duration of the hFIX at these levels is ˜15 hours or longer.

[2] = pKa of formulated cationic lipids in lipid nanoparticles (TNS fluorescence assay); type: physicochemical
Description: As described elsewhere, the pKa of formulated cationic lipids is correlated with the effectiveness of LNPs for delivery of nucleic acids (see Jayaraman et al, Angewandte Chemie, International Edition (2012), 51(34), 8529-8533; Semple et al, Nature Biotechnology 28, 172-176 (2010)). The preferred range of pKa is ˜5 to ˜7. […] Lipid nanoparticles comprising of cationic lipid/DSPC/cholesterol/PEG-lipid (50/10/38.5/1.5 mol %) in PBS at a concentration of 0.4 mM total lipid are prepared using the in-line process as described in EXAMPLE 47. TNS was prepared as a 100 μM stock solution in distilled water. Vesicles were diluted to 24 μM lipid in 2 mL of buffered solutions containing, 10 mM HEPES, 10 mM MES, 10 mM ammonium acetate, 130 mM NaCl, where the pH ranged from 2.5 to 11. An aliquot of the TNS solution was added to give a final concentration of 1 μM and following vortex mixing fluorescence intensity was measured at room temperature in a SLM Aminco Series 2 Luminescence Spectrophotometer using excitation and emission wavelengths of 321 nm and 445 nm. A sigmoidal best fit analysis was applied to the fluorescence data and the pKa was measured as the pH giving rise to half-maximal fluorescence intensity (see FIG. 2).

[3] = system: luciferase expression in the liver; experiment: In vivo luciferase mRNA expression rodent model (LNP, liver luciferase); set-up: species or system C57BL/6 mice; conditions: tail vein, liver 4 hours; for Liver Luc @ 0.3 mg/kg (ng luc/g liver): 0.3 mg mRNA/kg; for Liver Luc @ 1.0 mg/kg (ng luc/g liver): 1.0 mg mRNA/kg
Description: Cationic lipid (MC3), DSPC, cholesterol and PEG-lipid were solubilized in ethanol at a molar ratio of 50:10:38.5:1.5. Lipid nanoparticles (LNP) were prepared at a total lipid to mRNA weight ratio of approximately 10:1 to 30:1. Briefly, the mRNA was diluted to 0.2 mg/mL in 10 to 50 mM citrate buffer, pH 4. Syringe pumps were used to mix the ethanolic lipid solution with the mRNA aqueous solution at a ratio of about 1:5 to 1:3 (vol/vol) with total flow rates above 15 ml/min. The ethanol was then removed and the external buffer replaced with PBS by dialysis. Finally, the lipid nanoparticles were filtered through a 0.2 μm pore sterile filter. Lipid nanoparticle particle size was 70-90 nm diameter as determined by quasi-elastic light scattering using a Nicomp 370 submicron particle sizer (Santa Barbara, Calif.).
Studies were performed in 6-8 week old female C57BL/6 mice (Charles River) according to guidelines established by an institutional animal care committee (ACC) and the Canadian Council on Animal Care (CCAC). Varying doses of mRNA-lipid nanoparticle were systemically administered by tail vein injection and animals euthanized at specific time points (1, 2, 4, 8 and 24 hrs) post-administration. Liver and spleen were collected in pre-weighted tubes, weights determined, immediately snap frozen in liquid nitrogen and stored at −80° C. until processing for analysis.
For liver, approximately 50 mg was dissected for analyses in a 2 mL FastPrep tubes (MP Biomedicals, Solon Ohio). ¼″ ceramic sphere (MP Biomedicals) was added to each tube and 500 μL of Glo Lysis Buffer—GLB (Promega, Madison Wis.) equilibrated to room temperature was added to liver tissue. Liver tissues were homogenized with the FastPrep24 instrument (MP Biomedicals) at 2×6.0 m/s for 15 seconds. Homogenate was incubated at room temperature for 5 minutes prior to a 1:4 dilution in GLB and assessed using SteadyGlo Luciferase assay system (Promega). Specifically, 50 μL of diluted tissue homogenate was reacted with 50 μL of SteadyGlo substrate, shaken for 10 seconds followed by 5 minute incubation and then quantitated using a CentroXS^3 LB 960 luminometer (Berthold Technologies, Germany). The amount of protein assayed was determined by using the BCA protein assay kit (Pierce, Rockford Ill.). Relative luminescence units (RLU) were then normalized to total ug protein assayed. To convert RLU to ng luciferase a standard curve was generated with QuantiLum Recombinant Luciferase (Promega). Based in the data provided in FIG. 1, the four-hour time point was chosen for efficacy evaluation of the lipid formulations (see EXAMPLE 48).
The FLuc mRNA (L-6107) from Trilink Biotechnologies will express a luciferase protein, originally isolated from the firefly, Photinus pyralis. FLuc is commonly used in mammalian cell culture to measure both gene expression and cell viability. It emits bioluminescence in the presence of the substrate, luciferin. This capped and polyadenylated mRNA is fully substituted with 5-methylcytidine and pseudouridine.
The cationic lipids shown in Table 2 have previously been tested with nucleic acids. For comparative purposes, these lipids were also used to formulate lipid nanoparticles containing the FLuc mRNA (L-6107) using an in line mixing method, as described in EXAMPLE 47 and in PCT/US10/22614, which is hereby incorporated by reference in its entirety. Lipid nanoparticles were formulated using the following molar ratio: 50% Cationic lipid/10% distearoylphosphatidylcholine (DSPC)/38.5% Cholesterol/1.5% PEG lipid (“PEG-DMG”, i.e., (1-(monomethoxy-polyethyleneglycol)-2,3-dimyristoylglycerol, with an average PEG molecular weight of 2000). Relative activity was determined by measuring luciferase expression in the liver 4 hours following administration via tail vein injection as described in EXAMPLE 47. The activity was compared at a dose of 0.3 and 1.0 mg mRNA/kg and expressed as ng luciferase/g liver measured 4 hours after administration, as described in EXAMPLE 47. […]

[4] = system: cherry red (CR) red fluorescent protein expression in liver; experiment: LNP activity using cherry red (CR) mRNA, liver sections by confocal fluorescence microscopy; type: in vivo, C57BL/6 mice
Description: LNPs using compound 6 are formulated as described in EXAMPLE 47 with mRNA coding for a red fluorescent protein called cherry red (CR, e.g. TriLink Biotechnologies product L-6113). In vivo studies are conducted as described in EXAMPLE 47 and sections of liver tissue are processed and observed by confocal fluorescence microscopy at 4, 6 and 24 hours post administration. Expression levels peaked at around 6 hours and maintained to at least 24 hours.

[5] = Table 3, in LNP cationic lipid/DSPC/cholesterol/PEG-lipid 50/10/38.5/1.5 mol %, read-out: pKa
[6] = Table 3, LNP with 1.5% PEG-DMA (42-6), FLuc mRNA
[7] = Table 5, LNP with 1.5% PEG-lipid (42-6)
[8] = Table 6, LNP with 1.5% PEG-lipid (42-6)

Row | SMILES | pKa [2, 5] | Liver Luc @ 0.3 mg/kg (ng luc/g liver) [3, 6] | Liver Luc @ 1.0 mg/kg (ng luc/g liver) [3, 6] | other results
1 | CCCCCCCCC(CCCCCC)C(=O)OCCCCCCN(CCCCCCOC(=O)C(CCCCCC)CCCCCCCC)CCN(C)C (stereo not drawn) [Compound 5] | 6.28 | 1571 ± 414 ng luc/g liver | 12900 ± 4083 ng luc/g liver | Human Factor IX @ 0.3 mg/kg (ng mL in plasma) [1]: 1097 ± 357 ng·mL; Human Factor IX @ 1.0 mg/kg (ng mL in plasma) [1]: 4556 ± 686 ng·mL; measured levels of hFIX expression (assessment) [1]: clinically relevant; pKa ([2]; Table 5, in LNP): 6.28; Liver Luc @ 0.3 mg/kg (ng luc/g liver) [3, 7]: 1571 ± 414 ng luc/g liver; Liver Luc @ 1.0 mg/kg (ng luc/g liver) [3, 7]: 12900 ± 4083 ng luc/g liver
2 | CCCCCCCCC(CCCCCC)C(=O)OCCCCCCCCCN(CCCCCCCCCOC(=O)C(CCCCCC)CCCCCCCC)CCN(C)C (stereo not drawn) [Compound 6] | 6.12 | 2015 ± 135 ng luc/g liver | 16006 ± 2487 ng luc/g liver | time of peak expression levels ([4]; liver sections observed at 4, 6 and 24 hours post administration): around 6 hours; distribution of expression in tissue sections ([4]; liver sections, confocal fluorescence microscopy): homogeneous expression throughout the liver; expression maintained to ([4]; liver sections, post administration): at least 24 hours; Human Factor IX @ 0.3 mg/kg (ng mL in plasma) [1]: 713 ± 148 ng·mL; Human Factor IX @ 1.0 mg/kg (ng mL in plasma) [1]: 2697 ± 345 ng·mL; measured levels of hFIX expression (assessment) [1]: clinically relevant; pKa ([2]; Table 5, in LNP): 6.12; pKa ([2]; Table 6, in LNP): 6.12; Liver Luc @ 0.3 mg/kg (ng luc/g liver) [3, 7]: 2015 ± 135 ng luc/g liver; Liver Luc @ 1.0 mg/kg (ng luc/g liver) [3, 7]: 16006 ± 2487 ng luc/g liver; Liver Luc @ 0.3 mg/kg (ng luc/g liver) [3, 8]: 2015 ± 135 ng luc/g liver; Liver Luc @ 1.0 mg/kg (ng luc/g liver) [3, 8]: 16006 ± 2487 ng luc/g liver
3 | CCCCCCC(CCCCCC)OC(=O)CCCCCCCCCN(CCCCCCCCCC(=O)OC(CCCCCC)CCCCCC)CCN(C)C [Compound 29] | 6.22 | 1303 ± 445 ng luc/g liver | 9750 ± 3519 ng luc/g liver | 
4 | CCCCCCCCCCC(CCCCCCCC)COC(=O)CCCCCN(CCCCCC(=O)OCC(CCCCCCCC)CCCCCCCCCC)CCN1CCCC1 (stereo not drawn) [Compound 31] | 6.33 | 344 ± 160 ng luc/g liver | 4103 ± 1073 ng luc/g liver | 
5 | CCCCCCCCC(CCCCCC)COC(=O)CCCCCN(CCCCCC(=O)OCC(CCCCCC)CCCCCCCC)CCN1CCCC1 (stereo not drawn) [Compound 32] | 6.47 | 626 ± 299 ng luc/g liver | 12266 ± 192 ng luc/g liver | 
6 | CCCCCCCCC(CCCCCC)COC(=O)CCCCCN(CCCCCC(=O)OCC(CCCCCC)CCCCCCCC)CCN(C)CC (stereo not drawn) [Compound 33] | 6.27 | 711 ± 272 ng luc/g liver | 4448 ± 512 ng luc/g liver | 
7 | CC(C)=CCCC(C)CC(=O)OCCCCCCCCCCCCN(CCCCCCCCCCCCOC(=O)CC(C)CCC=C(C)C)CCN(C)C (stereo not drawn) [Compound 35] | 6.21 | 35 ± 15 ng luc/g liver | 101 ± 69 ng luc/g liver | 
8 | CCCCCCC(CCCC)C(=O)OCCCCCCCCCN(CCCCCCCCCOC(=O)C(CCCC)CCCCCC)CCN(C)C (stereo not drawn) [Compound 38] | 6.24 | 977 ± 336 ng luc/g liver | 7135 ± 1020 ng luc/g liver | 
9 | CCCCCCCCCCCCC(CCCCCCCCCC)C(=O)OCCCCCCN(CCCCCCOC(=O)C(CCCCCCCCCC)CCCCCCCCCCCC)CCN(C)C (stereo not drawn) [Compound 39] | 5.82 | 36 ± 13 ng luc/g liver | 326 ± 81 ng luc/g liver | 
10 | CCCCCCCCCCC(CCCCCCCC)C(=O)OCCCCCCCCCN(CCCCCCCCCOC(=O)C(CCCCCCCC)CCCCCCCCCC)CCN(C)C (stereo not drawn) [Compound 40] | 6.38 | 236 ± 71 ng luc/g liver | 1704 ± 571 ng luc/g liver | 
11 | CCCCCCCCCCCCC(CCCCCCCCCC)C(=O)OCCCCCCCCCN(CCCCCCCCCOC(=O)C(CCCCCCCCCC)CCCCCCCCCCCC)CCN(C)C (stereo not drawn) [Compound 41] | 5.91 | 63 ± 27 ng luc/g liver | 799 ± 619 ng luc/g liver | 
12 | CCCCC/C=C\C/C=C\CCCCCCCCC(CCCCCCCC/C=C\C/C=C\CCCCC)OC(=O)CCCN(C)C [MC3, reference compound] |  |  |  | Human Factor IX @ 0.3 mg/kg (ng mL in plasma) [1]: 336 ± 21 ng·mL; Human Factor IX @ 1.0 mg/kg (ng mL in plasma) [1]: 1154 ± 25 ng·mL; pKa ([2]; Table 5, in LNP, read-out: pKa): 6.09
